# Reference: patent EP3351262A1, “CURAGLUTIDE FOR IN TREATMENT OF PREDIABETES, DIABETES, OBESITY AND METABOLIC DISEASES ASSOCIATED THERETO” (Istanbul Universitesi Rektorlugu, priority 2016, dated 2018)
# Assays:
# Format in all cases: cell-based, rat
# [1] = tested on: INS-1 cells; test: Cell viability by MTT test; details: 2 mM palmitic acid, repetitive experiments
# Method: (§1) INS-1 cell strain from rat origin used in the studies was proliferated by performing routine passages once per week. The cells were grown under 1 atm pressure, in the incubator containing 5% CO2 and 95% air, in powder RPMI 1640 medium containing heat inactivated 10% fetal bovine serum (FBS) and antibiotics (100 unit/ml penicillin G100, 100 µg/ml streptomycin), 1% sodium pyruvate, hepes, sodium bicarbonate and beta-mercaptoethanol at 37 °C. The cells produced in 75 cm^2 sterile culture plate were used for the experiment when they covered 60-80% of the culture plate.
# (§2) The cells to be used in the experiments were removed from the surface of culture plate where they stuck, when they cover 60-80% of the culture plate, by using trypsin. In order to prevent the effect of trypsin to cells whose removal was monitored under microscope, the medium with the equal amount as trypsin was added and the cell suspension was collected in the centrifuge tube and centrifuged in 1500 rpm for 5 minutes. The supernatant was removed after centrifuge, the medium was added to the cells remained in the bottom part of the tube and pipetted in order to form single cell suspension. The total amount of cells was calculated by using hemocytometer. 50 000 INS-1 beta cells taken from 100% viable single cell suspension, whose cell amount was calculated, were cultured to each of the culture plates with 96 wells. The cultured cells were incubated at 37 °C for 24 hours in order to provide the sticking to the surface of culture plate and growing. After 24 of incubation, the cells were treated with 0.25 mM, 0.5 mM, 0.75 mM, 1 mM, 1.25 mM, 1.5 mM, 1.75 mM, […], 2.75 mM, 3 mM, 3.25 mM, 3.5 mM, 3.75 mM,4 mM, 4.25 mM, 4.5 mM, 4.75 mM, 5 mM palmitic acid which were the chosen doses for palmitic acid. 10 wells including the control group were used in the experiments and 24-hour experiment groups were formed for each of the concentrations.
# (§3) After the removal of the grown cells by trypsin, culturing was performed to 96 wells in a way such that there would be 50 000 cells in 200 µl. The cultured cells were incubated at 37 °C for 24 hours in order to provide growing. After 24 h of incubation, the cells were treated with 1nM, 10nM, 100nM curaglutide which were the chosen doses. 10 wells including the control group were used in the experiments and 24-hour experiment groups have been formed for each of the concentrations.
# (§4) MTT ([3-(4, 5-dimethyl tiazol-2-il)-2, 5 diphenyl tetrazolium bromide]) test is a drug sensitivity test based on cell culture principal, it aims to assess the cell growth and/or cell death in an indirect way. This frequently used test differs from the other testing methods, with the advantages that it is fast, sensitive, reproducible and easy to apply. The cracking of the tetrazolium ring of MTT paint by mitochondria in living cells underlies the basis of this method. This reaction is catalyzed by succinate dehydrogenase which is a mitochondrial enzyme. MTT is absorbed to cells actively and it is reduced to formazan which is non-soluble in water and has blue-purple color, by the reaction taking place in mitochondria. The MTT reducing properties of the cells are accepted as the cell viability criteria and they are directly proportionate to the paint density and living cell amount obtained by MTT analyze. While living cells with non-damaged mitochondria function are painted with purple color, cells that are dead or with damaged mitochondria function are not painted. Following bringing the formazan crystals formed by incubated living cells into soluble form, reaction product is read […].
# (§5) 50 mg MTT (AppliChem A2231 0001) was weighed, it was dissolved by completing 10 ml with RPMI 1640 medium via vortex, with paying attention that there are no not-dissolved paint particles left, and they were obtained by filtering through 0.22 µm filter. It was used by preparing a fresh one each time. […]
# [2] = Cell viability by MTT test; details: rat, 24 h, INS-1 cells, control 100%
# Method: as §1, §2, §3, §4, §5
# [3] = tested on: INS-1 beta cells; test: ROS measurement with H2DCFDA; details: INS-1 cells, 3rd hour, control 100%
# Method: When this compound oxidizes by oxidants or free radicals, fluorescent dichlorofluorescein (DCF) will occur.
# INS-beta cells were cultured into the plates covered with black with 96 wells in a way such that there would be 50 000 cells in 100 µl. After the growth of the cells, the experiment group (only palmitic acid given) and the groups wherein curaglutide as both protective and therapeutical against palmitic acid was given were removed at the end of the experiment, and each of the wells were washed with PBS. Then 100 µl PBS was added to every well. Then, start of experiment was accepted as 0th hour by adding 10 mM DCFA and the measurements were taken for 3 hours in every 30 minutes, including 0th hour. The absorbance values of each group and the absorbance values in 3rd hour was calculated by assuming the value of the control group as 100%.
# ROS measurement was performed by applying H 2 DCFDA occurred as a result of chemical […] of fluorescein which is used as a marker for reactive oxygen derivatives (ROS) to INS-1 beta cells wherein palmitic acid was applied in different doses, and the results are shown in Figure 5.
# ROS measurement was performed by applying 10 nM curaglutide as protector and therapeutical to INS-1 beta cells wherein palmitic acid was applied in different doses, and the results are shown in Figure 11.
compound,measurement,setting,value
CCCCCCCCCCCCCCCC(=O)O [palmitic acid],cell death,[1],50%
same,"viability at 24 h, 0.25 mM",[2]; 0.25 mM palmitic acid,92 ± 2.4%
same,"viability at 24 h, 0.5 mM",[2]; 0.5 mM palmitic acid,81.5 ± 7.6%
same,"viability at 24 h, 0.75 mM",[2]; 0.75 mM palmitic acid,75.6 ± 4.37%
same,"viability at 24 h, 1 mM",[2]; 1 mM palmitic acid,74.8 ± 2.35%
same,"viability at 24 h, 1.25 mM",[2]; 1.25 mM palmitic acid,72.7 ± 7.7%
same,"viability at 24 h, 1.5 mM",[2]; 1.5 mM palmitic acid,69.9 ± 7.4%
same,"viability at 24 h, 1.75 mM",[2]; 1.75 mM palmitic acid (autophagic dose),60.6 ± 11.6%
same,"viability at 24 h, 2 mM",[2]; 2 mM palmitic acid (apoptotic dose),50.1 ± 11%
same,"viability at 24 h, 2.25 mM",[2]; 2.25 mM palmitic acid,58.4 ± 11.5%
same,"viability at 24 h, 2.5 mM",[2]; 2.5 mM palmitic acid,49.9 ± 3%
same,"viability at 24 h, 2.75 mM",[2]; 2.75 mM palmitic acid,62.9 ± 4.3%
same,"viability at 24 h, 3 mM",[2]; 3 mM palmitic acid (necrotic dose),36.5 ± 3.3%
same,"viability at 24 h, 3.25 mM",[2]; 3.25 mM palmitic acid,44.1 ± 8.7%
same,"viability at 24 h, 3.5 mM",[2]; 3.5 mM palmitic acid,39.4 ± 11.4%
same,"viability at 24 h, 3.75 mM",[2]; 3.75 mM palmitic acid,42.9 ± 8.2%
same,"viability at 24 h, 4 mM",[2]; 4 mM palmitic acid (necrotic dose),41 ± 6.6%
same,"viability at 24 h, 4.25 mM",[2]; 4.25 mM palmitic acid,44.9 ± 11.8%
same,"viability at 24 h, 4.5 mM",[2]; 4.5 mM palmitic acid,37.3 ± 10.5%
same,"viability at 24 h, 4.75 mM",[2]; 4.75 mM palmitic acid,35.7 ± 3.7%
same,"viability at 24 h, 5 mM",[2]; 5 mM palmitic acid,42.1 ± 4.4%
same,ROS measurement percentages,[3]; 0.5 mM palmitic acid,116±6.01%
same,ROS measurement percentages,[3]; 1 mM palmitic acid,117±2.5%
same,ROS measurement percentages,[3]; 1.5 mM palmitic acid,119.7±7.0%
same,ROS measurement percentages,[3]; 1.75 mM palmitic acid,136.5±5.6%
same,ROS measurement percentages,[3]; 2 mM palmitic acid,145.8±3.8%
same,ROS measurement percentages,[3]; 2.5 mM palmitic acid,172.1±6.1%
same,ROS measurement percentages,[3]; 3 mM palmitic acid,174.8±9.9%
same,ROS measurement percentages,[3]; 3.5 mM palmitic acid,241.6±5.5%
same,ROS measurement percentages,[3]; 4 mM palmitic acid,262.2±9.9%
